Results as given in publication PMC4452251, “Characterization of a Thioredoxin-1 Gene from Taenia solium and Its Encoding Product” (BioMed Research International, 2015).

Biological target: T1, rTsTrx-1 (Taenia solium thioredoxin-1) (Taenia solium, UniProt A0A0A1E9C2)
T1 construct: gene Trx; full-length coding region, 107 residues, 11,579 Da, active site CGPC; N-terminal six-histidine tag (pRSETB), no tag removal stated
T1 sequence (A0A0A1E9C2 1-107): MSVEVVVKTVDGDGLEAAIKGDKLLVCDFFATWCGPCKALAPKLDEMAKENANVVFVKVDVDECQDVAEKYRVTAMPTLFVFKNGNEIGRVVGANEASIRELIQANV
Experiment: DTT/insulin reduction turbidity assay at […] nm
Type: biochemical
Conditions: 20 ug enzyme (1.5 uM) preincubated with MG 30 min at 37 C; insulin 160 uM, 1 mM DTT, 2 mM EDTA, potassium phosphate pH 6.5

Structure (SMILES): CC(=O)C=O [MG, methylglyoxal]
- % decrease of activity at 3 mM: 25%
